Measured values reported in PubChem BioAssay AID977624 (Broad Institute, 2014).
Inconclusive results are not listed. The source made the active and inactive calls.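 How the source made its calls: active means compound lowering the normal-ribosome reporter at least twice as much as the humanized-ribosome reporter, growth loss under a set limit; inconclusive means no clear call, values can overlap the other calls; inactive means the rest.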

Test system: E. coli wild-type GFP strain growth, fluorescence, 24 h
Assay: wild-type E. coli growth inhibition versus h34 humanized strain – h34 mutant RFP, wild-type GFP, cherry-pick, dose response (AID 977624);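 further: wild-type GFP strain co-cultured with humanized h34 ribosome RFP strain in same well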
Settings: not given

SMILES	AC50
CC(Nc1ncnc2ccccc12)c1ccccc1 (stereo not drawn)	> 100 µM (inactive)
COC(=O)c1c(NC(=O)c2ccccc2C(=O)O)sc2c1CCC2	> 100 µM (inactive)
COC(=O)C(Cc1csc2ccc(Cl)cc12)NC(=O)c1ccc(Cl)cc1 (stereo not drawn)	> 100 µM (inactive)
O=C(CSc1nc(C2CCCCC2)nc2ccccc12)N1CCCC1	> 100 µM (inactive)
Cc1cccc(C)c1NC(=O)C1(C)CSCC(=O)N1CCOc1ccccc1 (stereo not drawn)	> 100 µM (inactive)
FC(F)(F)c1ccc(Cl)c(-n2c(Cc3cccs3)n[nH]c2=S)c1	> 100 µM (inactive)
C[C@@H]1CN([C@H](C)CO)C(=O)c2cccc(NC(=O)c3ccncc3)c2O[C@@H]1CN(C)S(=O)(=O)c1ccc(Cl)cc1	> 100 µM (inactive)
O=C(O)c1ccc2c(c1)N(Cc1ccc(F)cc1)C(=O)c1ccccc1S2	> 100 µM (inactive)
O=C(c1cc(C(=O)N2CCOCC2)c2nc3ccccc3n2c1)c1cc(Cl)cc(Cl)c1O	> 100 µM (inactive)
O=S(=O)(NC1c2cccc3cccc(c23)C1Sc1ncccn1)c1ccccc1 (stereo not drawn)	> 100 µM (inactive)
O=C(NCc1ccccc1)c1nc(S(=O)(=O)Cc2ccccc2)ncc1Cl	> 100 µM (inactive)
CC(=O)c1c(C)[nH]c(C(=O)Nc2nc(C)cs2)c1C	> 100 µM (inactive)
O=C(Nc1cccc(-c2cn3ccccc3n2)c1)c1ccccc1	> 100 µM (inactive)
CCCCc1ccc(S(=O)(=O)Nc2ccc(C)c(NS(C)(=O)=O)c2)cc1	> 100 µM (inactive)
NS(=O)(=O)c1cccc(NC(=O)CSc2nnc(-c3ccccc3F)n2C2CC2)c1	> 100 µM (inactive)
COc1ccc(C(=O)Cn2c(C)nc([N+](=O)[O-])c2Br)cc1	> 100 µM (inactive)
Cc1cc(OCCCCOc2ccc(S(N)(=O)=O)c(C)c2)ccc1S(N)(=O)=O	> 100 µM (inactive)
Cc1cc(Br)ccc1SCC(=O)OCC(=O)NCc1ccco1	> 100 µM (inactive)
CCN(C(=O)COC(=O)c1cn(-c2ccccc2)nc1-c1ccccc1)C1CCS(=O)(=O)C1 (stereo not drawn)	> 100 µM (inactive)
O=C(O)c1ccccc1NC(=O)C(c1ccccc1)c1ccccc1	> 100 µM (inactive)
CCCCNC(=O)C[C@@H]1C[C@@]2(C(=O)OC)CCCCC=C2N(Cc2ccccc2)C1=O	> 100 µM (inactive)
COc1ccc(-c2nnn(CC(=O)N3CCN(c4ccccc4OC)CC3)n2)cc1OC	> 100 µM (inactive)
CCC(=O)c1ccc(OCC(=O)Nc2nc(C)cs2)cc1	> 100 µM (inactive)
Cc1cnc(NC(=O)Cc2c[nH]c3ccccc23)s1	> 100 µM (inactive)
CCOc1ccc(C(C)=O)cc1CN1C(=O)NC2(CCCCCCC2)C1=O	> 100 µM (inactive)
NC(=O)c1ccsc1NC(=O)COC(=O)CCOc1ccccc1	> 100 µM (inactive)

SMILES	AC50
O=C(NCc1ccco1)c1ccc(COc2cccc3ccccc23)cc1	> 100 µM (inactive)
Cc1ccc2nc(SCC(=O)Nc3c(F)cccc3F)[nH]c2c1	> 100 µM (inactive)
Cc1ccc(S(=O)(=O)NCc2c(-c3ccccc3)noc2C)cc1	> 100 µM (inactive)
Cc1ccc(NC(=O)C2CCN(S(=O)(=O)c3ccc4c(c3)NC(=O)CO4)CC2)cc1	> 100 µM (inactive)
COc1ccc(C(CC(=O)c2ccc(O)cc2)S(=O)(=O)c2ccc(C)cc2)cc1 (stereo not drawn)	> 100 µM (inactive)
COc1ccc2nc(SCC(=O)Nc3ccccc3OC)[nH]c2c1	> 100 µM (inactive)
Fc1cccc(Cc2c(-c3ccco3)nc3c4ccccc4ccn23)c1	> 100 µM (inactive)
COc1ccc(-c2noc(=O)n2Cc2ccccc2Cl)cc1	> 100 µM (inactive)
CC1=Nc2cc(C(=O)NCC3CCCO3)ccc2Sc2ccc(Br)cc21 (stereo not drawn)	> 100 µM (inactive)
COc1ccc(NC(=O)CN(c2ccccc2)S(=O)(=O)c2ccccc2)c(OC)c1	> 100 µM (inactive)
CC(=O)Nc1ccc(Nc2nc(C)c([N+](=O)[O-])c(N(C)c3ccccc3)n2)cc1	> 100 µM (inactive)
Cc1c(C(=O)NCCSCc2cccc(C(F)(F)F)c2)cnn1-c1ccc(F)cc1	> 100 µM (inactive)
CCc1nnc(NS(=O)(=O)c2ccc(NC(=O)c3cccc4ccccc34)cc2)s1	> 100 µM (inactive)
Cc1cc(C(=O)COC(=O)c2ccc(Br)o2)c(C)n1C	> 100 µM (inactive)
CCOc1ccc2sc(NS(=O)(=O)c3ccc(N)cc3)nc2c1	> 100 µM (inactive)
CC(=O)Oc1ccc(N(C(C)=O)S(=O)(=O)c2ccc(C)cc2)c2ccccc12	> 100 µM (inactive)
CCc1cc2cc(OC)ccc2nc1SCC(=O)Nc1cc(OC)c(OC)cc1C(=O)O	> 100 µM (inactive)
O=C(COC(=O)c1n[nH]c2ccccc12)Nc1cccc(S(=O)(=O)N2CCOCC2)c1	> 100 µM (inactive)
CCN(c1ccccc1)S(=O)(=O)c1ccc(OC)c(OC)c1	> 100 µM (inactive)
Cc1ccsc1C(=O)OCC(=O)N1CCc2ccccc2C1	> 100 µM (inactive)
CC(C)(CC(=O)O)CC(=O)NCc1c(Cl)cccc1Sc1ccc(Cl)cc1	> 100 µM (inactive)
O=C(Cn1c2[n+](c3ccc(C(F)(F)F)cc31)CCCCC2)c1ccc2c(c1)OCCO2	> 100 µM (inactive)
O=C(Nc1cccc(O)c1)c1cc(-c2ccccc2Cl)on1	> 100 µM (inactive)
Cc1n[nH]c(C)c1Sc1ccccc1[N+](=O)[O-]	> 100 µM (inactive)
O=C(Nc1ccc(C(=O)Nc2ccccc2Cl)cc1)c1cccnc1	> 100 µM (inactive)
COc1cc(SC)ccc1C(=O)N1CCN(c2ccccc2F)CC1	> 100 µM (inactive)

SMILES	AC50
O=C(O)CCN(Cc1ccccc1)S(=O)(=O)c1ccc(Cl)cc1F	> 100 µM (inactive)
COC(=O)c1cccc(CN2C(=O)SC(Nc3ccc(C)cc3)C2=O)c1 (stereo not drawn)	> 100 µM (inactive)
Cc1ccc(NC(=O)CN(C)S(=O)(=O)c2cccc3cccnc23)cc1F	> 100 µM (inactive)
COC(=O)COc1ccc(Cl)cc1C1Nc2ccccc2C(=O)N1c1ccc(OC)cc1 (stereo not drawn)	> 100 µM (inactive)
Cc1cc(NC(=O)CS(=O)(=O)c2cn(Cc3cccc(Br)c3)c3ccccc23)no1	> 100 µM (inactive)
C=CCn1c(CCSCc2ccc(OC)c(C)c2)n[nH]c1=S	> 100 µM (inactive)
Clc1ccc(-c2nc3ccc(Br)cn3c2Cc2ccsc2)cc1	> 100 µM (inactive)
O=S(=O)(c1ccccc1)N1C[C@@H]2[C@H](c3ccccc31)[C@H](CO)N2Cc1ccccc1	> 100 µM (inactive)
O=C(Cc1coc2cc(O)ccc12)N1CCN(S(=O)(=O)c2ccc(Br)cc2)CC1	> 100 µM (inactive)
CCOc1ccc(S(=O)(=O)Nc2ccc(S(=O)(=O)N3CCCC3)cc2)cc1	> 100 µM (inactive)
CC1(C(=O)NS(=O)(=O)c2ccc3c(c2)CCO3)CCN1C(=O)c1ccccc1CCc1ccccc1 (stereo not drawn)	> 100 µM (inactive)
CCOc1ccccc1/C=C/c1cc(C(=O)O)c2ccccc2n1	> 100 µM (inactive)
Nc1cc([N+](=O)[O-])ccc1Nc1ccc(O)cc1	> 100 µM (inactive)
C[C@]12CCC3C(CC[C@H]4C[C@@H](O)CC[C@]34C)[C@H]1CC[C@H]2O (stereo partly drawn)	> 100 µM (inactive)
O=C(c1ccc(-n2cccn2)cc1)N1CCc2ccccc2C1	> 100 µM (inactive)
CN(C)C(=O)C1C2NC(=S)N(c3cccc(Cl)c3)C1(C)Oc1ccc(Cl)cc12 (stereo not drawn)	> 100 µM (inactive)
NC(=O)c1nsc(C(=O)N(c2ccccc2F)C(C(=O)NCc2ccc(F)cc2)c2ccc(O)cc2)c1N (stereo not drawn)	> 100 µM (inactive)
O=C(CSc1nc2scc(-c3ccccc3)c2c(=O)[nH]1)N1CCCCC1	> 100 µM (inactive)
COC(=O)COc1ccc(S(=O)(=O)N2CCc3ccccc3C2)cc1C	> 100 µM (inactive)
O=C(O)c1ccc(-c2noc(-c3cccc(Cl)c3)n2)cc1	> 100 µM (inactive)
O=C(Nc1ccc2nc3n(c(=O)c2c1)CCCCC3)c1c(F)ccc([N+](=O)[O-])c1F	> 100 µM (inactive)
Cc1ccccc1OCC(O)Cn1c(NCc2ccco2)nc2c1c(=O)n(C)c(=O)n2C (stereo not drawn)	> 100 µM (inactive)
Cc1ccc(S(=O)(=O)Nc2ccccc2CNc2cccc(C)n2)cc1	> 100 µM (inactive)
CS(=O)(=O)c1cccc(C(=O)Nc2cccc(-c3nc4ccccc4[nH]3)c2)c1	> 100 µM (inactive)
COc1ccc(-c2ccc3ccccc3n2)cc1OC	> 100 µM (inactive)
COc1cccc2c1Oc1cc([N+](=O)[O-])cc(N(C)C(C)=O)c1C=C2	> 100 µM (inactive)

Test system: E. coli mixed culture (wild-type GFP + h34 RFP) total growth, OD600, 24 h
Assay: as above
Settings: E. coli mixed culture (wild-type GFP + h34 RFP), 24 h; measured here: total OD600 growth

SMILES	AC50
O=C(Nc1cccc(Cl)c1)N1C[C@@H]2[C@H](c3ccccc31)[C@H](CO)N2Cc1ccncc1	> 100 µM
Cc1cccc(OCCC(=O)Nc2ccc(F)c(F)c2)c1	> 100 µM
CN(C)Cc1nc2ccccc2c(=O)n1Cc1nc(-c2cccc([N+](=O)[O-])c2)cs1	> 100 µM
CCCN(Cc1ccco1)S(=O)(=O)c1ccc(OC)c(OC)c1	> 100 µM
Cc1noc(C)c1NC(=O)N(C)C[C@H]1OCCCC[C@@H](C)Oc2ccc(NC(=O)Nc3cccc4ccccc34)cc2C(=O)N([C@@H](C)CO)C[C@H]1C	> 100 µM
O=C1c2ccccc2NC(c2ccc(-c3cccc([N+](=O)[O-])c3)o2)N1O (stereo not drawn)	> 100 µM
CC(=O)Nc1cccc(NC(=O)CSc2ccc(-c3cccnc3)nn2)c1	> 100 µM
CO[C@@H]1CN(C)C(=O)c2cc(NC(=O)C3CCCC3)ccc2OC[C@@H](C)N(C(=O)Nc2ccc(C(F)(F)F)cc2)C[C@H]1C	> 100 µM
CCOc1ccc(CCNC(=O)CCn2ccc3cc(S(=O)(=O)N4CCCC4)ccc32)cc1	> 100 µM
C=CCn1c(SCC(=O)Nc2ccc3c(c2)OCCO3)nnc1-c1ccco1	> 100 µM
C=CCN(CC(O)c1cccc([N+](=O)[O-])c1)C(C)CCc1ccccc1 (stereo not drawn)	> 100 µM
O=C(Nc1cc(S(=O)(=O)N2CCOCC2)ccc1N1CCOCC1)c1ccc([N+](=O)[O-])s1	> 100 µM
CC1CCN(c2ccc3nnc(CCC(=O)Nc4cccc(F)c4)n3n2)CC1	> 100 µM
Cc1nc(SCC(=O)Nc2ccc3c(c2)OCCO3)nc(C)c1C	> 100 µM
CCn1cc(CCC(=O)NCCc2ccccc2)c2ccccc21	> 100 µM
